Laboratory results taken from ChEMBL document CHEMBL1134735, “Synthesis and photodynamic action of diphenyl-2,3-dihydroxychlorin: a potential tumor photosensitizer” (2001).

Test: The dark toxicity against 543 human galactophore carcinoma cells
Type: functional

OC1c2cc3ccc([nH]3)c(-c3ccccc3)c3ccc(cc4nc(c(-c5ccccc5)c(n2)C1O)C=C4)[nH]3 (stereo unspecified)
IC90: > 32 µg/mL
